# Patent US10351553B2, “Potassium channel modulators” (Cadent Therapeutics, Inc., priority 2017, dated 2019)
# Where two headings read alike, the source gives them in different places.
# Assays:
# [1] = Brain free fraction by equilibrium dialysis in rat brain tissue homogenate; assay type: in vitro ADME; details: 10% rat brain tissue homogenate, Tables 2 and 3
# Description: (§1) The extent to which compounds modulate SK2 channels in vivo is expressed as % SK2 SC100, which is the ratio of the concentration of the drug free in the brain to the measured potency of the compound on the SK2 channel. It is calculated as follows: CFB=CMB×BFF, where CMB is the concentration of compound measured by liquid chromatography mass spectrometry from brains harvested immediately following tremor recording (Table 1, “Measured Brain Concentration”). CFB is the amount of free compound not complexed with protein and therefore free to interact with the SK2 channel (Table 1, “Calculated Free Brain Concentration”). BFF is average free fraction of compound as measured by equilibrium dialysis in separate experiments (1 uM test concentration incubated in 10% rat brain tissue homogenate for 5 hours at 37° C.) (Table 1, “Brain Free Fraction”). Free drug in brain available to interact with SK2 channels (CFB) is arrived at by multiplying the measured total brain level (CMB) by the average free fraction (BFF).
# [2] = target: T1, CYP1A2 (Homo sapiens, UniProt P05177); test: CYP inhibition in human liver microsome, CYP1A2 (Phenacetin); assay type: in vitro ADME
# T1 construct: Matrix: Human Liver Microsome (Invitrogen, life technologies); tissue Invitrogen, life technologies; host or cells: human liver microsomes
# T1 sequence (P05177 1-516): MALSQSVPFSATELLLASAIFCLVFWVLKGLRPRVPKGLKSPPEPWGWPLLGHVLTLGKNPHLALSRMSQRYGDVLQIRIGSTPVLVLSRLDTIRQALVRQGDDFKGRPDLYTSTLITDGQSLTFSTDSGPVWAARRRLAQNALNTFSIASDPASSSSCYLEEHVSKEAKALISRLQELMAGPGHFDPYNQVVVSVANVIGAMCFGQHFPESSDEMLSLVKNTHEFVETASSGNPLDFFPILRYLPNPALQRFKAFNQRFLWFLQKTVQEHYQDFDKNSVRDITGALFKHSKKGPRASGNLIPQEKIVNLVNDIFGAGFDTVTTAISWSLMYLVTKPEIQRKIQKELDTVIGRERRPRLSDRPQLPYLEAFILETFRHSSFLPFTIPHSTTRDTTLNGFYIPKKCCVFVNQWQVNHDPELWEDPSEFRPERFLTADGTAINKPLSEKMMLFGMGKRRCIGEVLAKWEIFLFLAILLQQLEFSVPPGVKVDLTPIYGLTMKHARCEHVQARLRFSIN
# Description: Compounds described herein were tested for CYP inhibition across 5 isoforms (3A4, 2D6, 2C9, 2C19 & 1A2). In this assay, CYP isoform specific substrates are incubated with human liver microsome (HLM) in the presence of test compounds, and metabolite formation is determined. Percentage inhibition of metabolite formation at different concentrations of test compound is calculated and IC50 is determined. Conditions used in the assay are summarized below. Results are shown in Table 2. • Test drug (Inhibitor) Concentration: 8 different concentrations (100 μM to 0.005 μM) • Matrix: Human Liver Microsome (Invitrogen, life technologies) • Specific probe substrates will be used for the isoforms as given below: • CYP3A4: Midazolam • CYP2D6: Bufuralol • CYP2C9: Diclofenac • CYP2C19: Mephynitoin • CYP1A2: Phenacetin • Cofactors: NADPH (1 mM final in assay) • Sample Analysis: LC-MS/MS (metabolites) • Specific reference inhibitors included in all assays (Ketoconazole/Quinidine/Sulphaphenazole/Ticlopidine/Furafylline) • Buffer: Potassium Phosphate Buffer (100 mM) pH 7.4 • DMSO level in assay: 0.1% • Data analysis: % Inhibition over control
# [3] = tested on: harmaline induced tremor; test: Harmaline induced tremor, tremor events by forepaw transmitter band; assay type: in vivo, rat
# Description: Immediately following harmaline injection, animals were placed in the tremor quantification apparatus and tremor events were quantified for 60 minutes. A tremor event signal was generated when a small metal transmitter band fitted to the right forepaw of the animal moved within the electromagnetic field generated by a loop antenna within the testing apparatus. Outputs from the amplifier were digitized at a sampling rate of 1,000 Hz and the signal was processed and analyzed using LabView software (National Instruments). To minimize signal from ambulatory and grooming behavior, the signal was filtered with a 128-ms unweighted moving average filter, and events with amplitudes>0.5 V and lasting>300 ms in duration were counted as a tremor event. Data were analyzed in one-minute bins over the course of the test and presented as the sum of tremor events over the entire 60 minute test.
# [4] = tested on: harmaline-induced tremor; test: Harmaline-induced whole body tremor, force-plate accelerometer (Tremor Monitor); assay type: in vivo
# Description: Whole body tremor was measured by a San Diego Instruments Tremor Monitor (San Diego, Calif., USA). […] Tremor was measured for 30 minutes following harmaline administration, and data were analyzed by fast Fourier transform and reported as a frequency power spectrum. Harmaline induced a significant increase in the power spectrum in a band of frequencies between 10 and 14 Hz. […] Data were further analyzed by calculating the percent Motion Power (% MP), defined as the power in the 9-13 Hz band divided by the total power across the spectrum (0-30 Hz) multiplied by 100.
# [5] = Brain concentration by LC-MS from brains harvested after tremor recording; assay type: in vivo; details: Sprague Dawley, rat, oral, 30 mg/Kg
# Description: as §1
# The amount of free compound is then expressed in terms of its potency against the SK2 channel as follows: % SK2 SC100=CFB/SK2 SC100×100, where SK2 SC100 (Table 1, “SK2 SC100”) is the measured value of potency of the compound on SK2 channels and % SK2 SC100 (Table 1, “% SK2 SC100”) is the free brain concentration (CFB) normalized to SK2 SC100.
# [6] = tested on: Purkinje neurons; test: Purkinje cell firing irregularity in ex vivo cerebellar slices from SCA2 58Q transgenic mice; assay type: cell-based, mouse; details: bath application of 1 or 3 μM; slices from eleven-month old SCA2 58Q mice; P<0.05; FIG. 3
# Text: The difference in ISI CV between wild-type (N=8) and SCA2 58Q (N=11) mice is illustrated in FIG. 3 (P<0.005).
Structure (SMILES),"fraction unbound at 5 h, 1 uM [1]",IC50 [2] [nM],"Effect on harmaline induced tremor (sum of tremor events over 60 minutes) ([3]; 30 mg/Kg oral, 30 minutes prior to harmaline, male Sprague Dawley rats, FIG. 1)","Minimally Efficacious Dose ([3]; harmaline induced tremor, oral administration) [mg/kg]","Effect on percent Motion Power (% MP) ([4]; 3 mg/kg P<0.01, 10 and 30 mg/kg P<0.05, orally, FIG. 2)","Effect on harmaline-induced power spectrum, 10 to 14 Hz band ([4]; 3, 10, and 30 mg/kg orally 30 minutes prior to 5 mg/kg harmaline i.p.)","concentration at 90 min ([5]; CFB=CMB×BFF, read-out: Calculated Free Brain Concentration) [nM]","concentration at 90 min ([5]; brains harvested immediately following tremor recording, minimally efficacious dose, read-out: Measured Brain Concentration) [nM]",Effect on coefficient of variation of the interspike interval (ISI CV) [6]
"Cc1cc(NC2CCCCC2)nc(-n2nc(C)cc2C)n1 [Comparator A, reference compound]",0.012,640,–,–,–,–,–,–,–
"Cc1ccn(-c2nc(NC3CCC(F)(F)CC3)cc(N3CCOCC3)n2)n1 [Compound 1, N-(4,4-difluorocyclohexyl)-2-(3-methyl-1H-pyrazol-1-yl)-6-morpholinopyrimidin-4-amine]",0.061,> 10000,significant inhibition of tremors,30,significantly reduced harmaline-induced tremor,significantly reduced tremor,80,1300,partially reversed the increase in ISI CV
